Measurements as given in paper PMC8474116, “Discovery of Novel Acetamide-Based Heme Oxygenase-1 Inhibitors with Potent In Vitro Antiproliferative Activity” (Journal of Medicinal Chemistry, 2021).
Converted amounts (≈) assume the structure as drawn.

Legend:
[1] = Aqueous solubility in simulated gastric fluid (Eurofins); format: physicochemical
Description: In vitro ADMET testing has been performed at Eurofins Scientific. Aqueous solubility in simulated gastric fluid (catalogue product number 2061), intrinsic clearance in liver microsome-human (catalogue product number 607), CYP2D6 and CYP3A4 inhibition (catalogue product numbers 1338 and 391, respectively), and hERG human potassium ion channel binding (catalogue product number 4094) were conducted at Eurofins following their experimental protocols (https://www.eurofins.com/).

[2] = Bidirectional permeability (Caco-2); format: in vitro ADME; settings: human
human CYP2D6 = target: T1, human CYP2D6 (Homo sapiens, UniProt P10635); experiment: CYP2D6 inhibition (Eurofins); format: in vitro ADME
T1 construct: Eurofins Scientific (contract assay) 1338
T1 sequence (P10635 whole entry): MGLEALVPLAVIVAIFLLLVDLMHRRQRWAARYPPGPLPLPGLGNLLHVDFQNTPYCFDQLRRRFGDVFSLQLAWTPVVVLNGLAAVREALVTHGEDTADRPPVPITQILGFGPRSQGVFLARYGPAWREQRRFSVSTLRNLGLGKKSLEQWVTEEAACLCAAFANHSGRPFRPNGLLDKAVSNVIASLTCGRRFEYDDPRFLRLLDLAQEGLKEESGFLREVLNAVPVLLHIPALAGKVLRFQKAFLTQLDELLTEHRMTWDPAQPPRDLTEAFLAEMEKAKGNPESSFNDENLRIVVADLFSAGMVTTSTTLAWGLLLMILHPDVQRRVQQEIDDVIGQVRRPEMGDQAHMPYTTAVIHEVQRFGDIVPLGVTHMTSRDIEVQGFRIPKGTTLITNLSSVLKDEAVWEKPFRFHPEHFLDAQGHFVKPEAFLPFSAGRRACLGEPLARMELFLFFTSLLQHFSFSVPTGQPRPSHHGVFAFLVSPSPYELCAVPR
Source text: In vitro ADMET testing has been performed at Eurofins Scientific.

U87MG cells = experiment: Wound-healing assay, U87MG; format: cell-based, human; settings: 10 μM, vs control at 24 and 48 h
Description: U87MG cells grown to confluence in 6-well dishes (5 × 10^4 cells/well) were scratched with a 200 μL pipette tip. Cells were cultured in a 1% serum medium with or without 10 μM of 7l. Quantitative assessment of the wound area was performed under an inverted microscope, as previously described.[63] The distance that the advancing cells had moved into the wound area was measured after 24 and 48 h. The migration was calculated as the average number of cells observed in three random of high-power wounded fields/per well in duplicate wells and expressed in percentage of control (% of control).

VEGF = VEGF intracellular expression by Western blot, U87MG; format: cell-based, human; settings: 10 μM, 48 h
Description: Proteins were extracted from total cell lysate, as previously described.[61] Briefly, cell lines were added to a buffer containing 20 mM Tris (pH 7.4), 2 mM EDTA, 0.5 mM EGTA, 50 mM mercaptoethanol, and […] sucrose supplemented with phosphatase and protease inhibitor cocktails (Roche Diagnostics, Monza, Italy). Subsequently, protein samples were sonicated twice for 20′ by using an ultrasonic probe, followed by centrifugation at 10 000g for 10 min at 4 °C. Sample proteins (30 μg) were diluted in 4X NuPage LDS sample buffer (Invitrogen, NP0007), heated at 80 °C for 5 min, and then separated on a Biorad Criterion XT 4–15% Bis–Tris gel (BIO-RAD) by electrophoresis and then transferred to a PVDF membrane (BIO-RAD). Blots were blocked using the Odyssey Blocking Buffer (LI-COR Biosciences) and probed with appropriate antibodies: HO-1 antibody (GeneTex GTX101147), goat polyclonal anti-VEGF (cat. no. sc-1836, Santa Cruz Biotechnology), and rabbit polyclonal anti-β-tubulin (cat n.sc-9104, Santa Cruz Biotechnology) and β-actin antibody (GeneTex GTX109639).
The secondary antibodies goat antirabbit (Odyssey, #926-32211; Odyssey #926-68021) and donkey antigoat IRDye 800CW (cat #926-32214; Li-Cor Biosciences) were used at 1:7000. Blots were scanned, and densitometric analysis was performed with the Odyssey Infrared Imaging System. Values were normalized to β-actin and to β-tubulin.

H5V cells = experiment: Tube formation assay, H5V endothelial cells with U87MG conditioned medium; format: cell-based, murine; settings: H5V cells with CM2, medium from U87MG cultured with 10 μM, 48 h
Description: Subconfluent U87MG cell cultures were placed in media supplemented with 1% FBS (representing the conditioned medium 1 (CM1) or control) or containing 10 μM of 7l molecule (representing the conditioned medium 2 (CM2)) and incubated at 37 °C for 48 h. Subsequently, the CMs were collected and centrifuged at 2000 rpm for 5 min, and the supernatants were frozen at −80 °C until use. GeltrexTM reduced growth factor basement membrane matrix (Invitrogen) was thawed at 4 °C overnight before use. GeltrexTM matrix was added to a 24-well plate (95 μL/well) and then incubated at 37 °C for 30 min to allow polymerization. Murine microvascular endothelial cells (H5V) were starved overnight in the growth medium, and then the cells were seeded onto the layer of GeltrexTM matrix and cultured with 200 μL of CM1 and CM2 at 37 °C for 48 h. Three randomly selected fields of view were captured with a digital camera (Canon) connected to an inverted microscope (Axio Observer A1; Carl Zeiss, Göttingen, Germany). Tube numbers per field were calculated as the percentage of control.

DU145 cells = experiment: MTT cell viability assay, DU145; format: cell-based; settings: 48 h, 1 μM and 10 μM
Description: Experiments were performed on human GBM cell lines U87MG (ATCCC number #HTB-14) and A172 (ATCCC #CRL-1620) on DU145 (ATCC HTB-81) and human lung adenocarcinoma A549 (ATCC CCL-185-LUC2). All cell lines were obtained from the American Type Culture Collection (ATCC, Rockville, MD). Cells were grown in Dulbecco’s modified Eagle’s medium (DMEM) supplemented with 10% of heat-inactivated fetal bovine serum (FBS), 100 U/mL of penicillin, and 100 μg/mL of streptomycin (Sigma-Aldrich, Steinheim, Germany). Cells were incubated at 37 °C in a humidified atmosphere with 5% CO2.
The effect of selected compounds 7i and 7l–p on cell viability was assessed by performing an MTT assay. Cells were seeded into 96-well plates at a density of 7 × 10^3 cells/well in 100 μL of culture medium. After 24 h, cells were treated with selected compounds at three different concentrations (1 μM, 10 μM, and 50 μM) for 48 h. Following treatments, 0.5 mg/mL of 3-[4,5-dimethylthiazol-2-yl]-2,5-diphenyltetrazolium bromide (MTT) (Sigma-Aldrich) was added to each well and incubated for 4 h at 37 °C. Finally, dimethyl-sulfoxide (DMSO) was used to dissolve formazan salts, and absorbance was measured at 570 nm in a microplate reader (Biotek Synergy-HT). Eight replicate wells were used for each group.

[3] = Caco-2, pH 6.5/7.4, tested concentration 10 μM

Row | Compound | solubility [1] [µM] | efflux ratio at 10 μM ([2]; Caco-2, read-out: efflux ratio (Papp BA/Papp AB)) | Papp A→B at 10 µM [2, 3] [×10⁻⁶ cm/s] | Papp B→A at 10 µM [2, 3] [×10⁻⁶ cm/s] | IC50 (human CYP2D6) [µM] | cell motility, wound-healing assay (in words) (U87MG cells) | VEGF intracellular expression (in words) (VEGF) | number of tube-like structures (in words) (H5V cells) | cell viability reduction (in words) (DU145 cells)
1 | CN(C(=O)Cn1ccnc1)C(c1ccccc1)c1ccc(Cl)cc1 (stereo not drawn) [7l, N-((4-Chlorophenyl)(phenyl)methyl)-2-(1H-imidazol-1-yl)-N-methylacetamide] | 196 (≈ 66.5 µg/mL) | 0.44 | 44.1 | 19.4 | 2.5 | drastically reduced | significant reduction | significantly decreased | –
2 | CN(C(=O)Cn1ccnc1)C(c1ccccc1)c1ccc(OCc2ccccc2)cc1 (stereo not drawn) [7o, N-((4-(Benzyloxy)phenyl)(phenyl)methyl)-2-(1H-imidazol-1-yl)-N-methylacetamide] | – | – | – | – | – | – | – | – | had efficacies
